{
  "source": "patent US20250206755A1",
  "about": "“ANTIMICROBIAL AGENTS” (RUTGERS, THE STATE UNIVERSITY OF NEW JERSEY, priority 2012, published 2025)",
  "key": {"MSSA": {"tested_on": "MSSA", "assay": "Antibacterial assay, broth microdilution MIC (Test A)", "type": "cell-based", "conditions": "Staphylococcus aureus, MIC values may be lower as solubility and aggregate formation may reduce observed activity", "experimental": "(§1) Antibacterial activity can be determined as per Clinical and Laboratory Standards Institute (CLSI) guidelines using a broth microdilution assay in which log-phase bacteria are grown at 37° C. in appropriate medium containing two-fold serial dilutions of a compound to yield final concentrations ranging from 256 to 0.06 μg/mL. For determination of minimal inhibitory concentration (MIC) values, bacterial growth is monitored after 24 to 48 hours by measuring optical density at 600 nm."}, "MRSA": {"tested_on": "MRSA", "assay": "Antibacterial assay, broth microdilution MIC (Test A)", "type": "cell-based", "conditions": "Staphylococcus aureus, MIC values may be lower as solubility and aggregate formation may reduce observed activity", "experimental": "as §1"}, "[1]": {"tested_on": "S. aureus ATCC 19636 (MSSA)", "assay": "In vivo efficacy, mouse peritonitis model of systemic infection (Test D), MSSA", "conditions": "mice", "experimental": "Antistaphylococcal efficacy in vivo was assessed in a mouse peritonitis model of systemic infection with S. aureus ATCC 19636 (MSSA) or ATCC 43300 (MRSA). These studies were conducted in full compliance with the standards established by the US National Research Council's Guide for the Care and Use of Laboratory Animals, and were approved by the Institutional Animal Care and Use Committee (IACUC) of Rutgers University. Groups of 4-6 female Swiss-Webster mice with an average weight of 25 g were infected intraperitoneally with a lethal inoculum of each bacterial strain in saline. The inoculum of S. aureus ATCC 43300 contained 1.0×10^8 CFUs/mL of bacteria, while the inoculum of S. aureus ATCC 19636 contained 0.8×10^7 CFUs/mL of bacteria. All the inocula also contained porcine mucin (Sigma-Aldrich, Co.) at a (w/v) percentage of 1.5% (in ATCC 19636 inocula) or 5% (in the ATCC 43300 inoculum). The differing compositions of the inocula of these S. aureus strains were selected based on the virulence of each strain, with MSSA ATCC 19636 being the more virulent strain and MRSA ATCC 43300 being the less virulent strain.\nAll compound and vehicle intravenous (i.v.) administrations were by tail vein injection, with 17 being formulated at 2.0 mg/mL and 44 being formulated at both 2.0 and 3.0 mg/ml in 10 mM citrate (pH 2.6).\nIn the MSSA ATCC 19636 experiments, the first dose of compound was administered 10 minutes after infection, with subsequent doses being administered at 12-minute intervals thereafter unless otherwise noted. In the MRSA studies, the first dose of compound was administered one hour after infection, with subsequent doses being administered at 12-minute intervals thereafter unless otherwise indicated.\nThe body temperatures of all mice were monitored for a period of 5 days after infection. Body temperatures were recorded at the Xiphoid process using a noninvasive infrared thermometer (Braintree Scientific, Inc., Braintree, MA). Infected mice with body temperatures ≤28.9° C. were viewed as being unable to recover from the infection and were euthanized."}, "[2]": {"tested_on": "S. aureus ATCC 43300 (MRSA)", "assay": "In vivo efficacy, mouse peritonitis model of systemic infection (Test D), MRSA", "conditions": "mice, p.o., total dose 4.8 mg/mouse"}, "[3]": {"conditions": "i.v., 1x, total dose 0.6 mg/mouse, first dose immediately prior to infection"}, "[4]": {"conditions": "i.v., 2x, total dose 1.2 mg/mouse, first dose immediately prior to infection, subsequent doses 15 minutes following"}, "[5]": {"conditions": "p.o., 1x, total dose 0.8 mg/mouse, first dose 5 minutes prior to infection"}, "[6]": {"conditions": "p.o., 2x, total dose 1.6 mg/mouse, first dose 5 minutes prior to infection, subsequent doses 15 minutes apart"}, "[7]": {"conditions": "p.o., 4x, total dose 3.2 mg/mouse, first dose 5 minutes prior to infection, subsequent doses 15 minutes apart"}, "[8]": {"conditions": "6x (no footnote: first dose one hour after infection, 12-minute intervals)"}, "[9]": {"conditions": "6x, first dose 5 minutes prior to infection, subsequent doses 12 minutes apart"}, "[10]": {"conditions": "6x, first dose 10 minutes post-infection, subsequent doses 12 minutes apart"}, "[11]": {"conditions": "i.v., 2x, total dose 1.8 mg/mouse"}, "[12]": {"conditions": "p.o., 1x, total dose 0.8 mg/mouse"}, "[13]": {"conditions": "p.o., 2x, total dose 1.6 mg/mouse"}, "[14]": {"conditions": "p.o., 3x, total dose 2.4 mg/mouse"}, "[15]": {"conditions": "p.o., 4x, total dose 3.2 mg/mouse"}},
  "data": [
    {"smiles": "CCC(=O)NC(=O)c1c(F)ccc(OCc2nc3cc(Cl)ccc3s2)c1F", "note": "[Example 5]", "values": [
      {"measurement": "MIC", "setting": "MSSA", "result": 2, "unit": "µg/mL"},
      {"measurement": "MIC", "setting": "MRSA", "result": 2, "unit": "µg/mL"}
    ]},
    {"smiles": "CN1CCC(C(=O)NC(=O)c2c(F)ccc(OCc3nc4cc(Cl)cnc4s3)c2F)CC1", "note": "[Example 17]", "values": [
      {"measurement": "Survival (%) 24 Hrs", "setting": "[1]; [3]", "result": 0, "unit": "%"},
      {"measurement": "Survival (%) 48 Hrs", "setting": "[1]; [3]", "result": 0, "unit": "%"},
      {"measurement": "Survival (%) 72 Hrs", "setting": "[1]; [3]", "result": 0, "unit": "%"},
      {"measurement": "Survival (%) 24 Hrs", "setting": "[1]; [4]", "result": 0, "unit": "%"},
      {"measurement": "Survival (%) 48 Hrs", "setting": "[1]; [4]", "result": 0, "unit": "%"},
      {"measurement": "Survival (%) 72 Hrs", "setting": "[1]; [4]", "result": 0, "unit": "%"},
      {"measurement": "Survival (%) 24 Hrs", "setting": "[1]; [5]", "result": 0, "unit": "%"},
      {"measurement": "Survival (%) 48 Hrs", "setting": "[1]; [5]", "result": 0, "unit": "%"},
      {"measurement": "Survival (%) 72 Hrs", "setting": "[1]; [5]", "result": 0, "unit": "%"},
      {"measurement": "Survival (%) 24 Hrs", "setting": "[1]; [6]", "result": 0, "unit": "%"},
      {"measurement": "Survival (%) 48 Hrs", "setting": "[1]; [6]", "result": 0, "unit": "%"},
      {"measurement": "Survival (%) 72 Hrs", "setting": "[1]; [6]", "result": 0, "unit": "%"},
      {"measurement": "Survival (%) 24 Hrs", "setting": "[1]; [7]", "result": 100, "unit": "%"},
      {"measurement": "Survival (%) 48 Hrs", "setting": "[1]; [7]", "result": 100, "unit": "%"},
      {"measurement": "Survival (%) 72 Hrs", "setting": "[1]; [7]", "result": 100, "unit": "%"},
      {"measurement": "Survival (%) 48 Hrs", "setting": "[2]; [8]", "result": 50, "unit": "%"},
      {"measurement": "Survival (%) 72 Hrs", "setting": "[2]; [8]", "result": 50, "unit": "%"},
      {"measurement": "Survival (%) 24 Hrs", "setting": "[2]; [9]", "result": 100, "unit": "%"},
      {"measurement": "Survival (%) 48 Hrs", "setting": "[2]; [9]", "result": 100, "unit": "%"},
      {"measurement": "Survival (%) 72 Hrs", "setting": "[2]; [9]", "result": 100, "unit": "%"},
      {"measurement": "Survival (%) 24 Hrs", "setting": "[2]; [10]", "result": 100, "unit": "%"},
      {"measurement": "Survival (%) 48 Hrs", "setting": "[2]; [10]", "result": 100, "unit": "%"},
      {"measurement": "Survival (%) 72 Hrs", "setting": "[2]; [10]", "result": 100, "unit": "%"}
    ]},
    {"smiles": "CN1CCC(C(=O)NC(=O)c2c(F)ccc(OCc3nc4cc(C(F)(F)F)cnc4s3)c2F)CC1", "note": "[Example 44]", "values": [
      {"measurement": "Survival (%) 24 Hrs", "setting": "[1]; [11]", "result": 100, "unit": "%"},
      {"measurement": "Survival (%) 48 Hrs", "setting": "[1]; [11]", "result": 100, "unit": "%"},
      {"measurement": "Survival (%) 72 Hrs", "setting": "[1]; [11]", "result": 100, "unit": "%"},
      {"measurement": "Survival (%) 24 Hrs", "setting": "[1]; [12]", "result": 50, "unit": "%"},
      {"measurement": "Survival (%) 48 Hrs", "setting": "[1]; [12]", "result": 50, "unit": "%"},
      {"measurement": "Survival (%) 72 Hrs", "setting": "[1]; [12]", "result": 50, "unit": "%"},
      {"measurement": "Survival (%) 24 Hrs", "setting": "[1]; [13]", "result": 100, "unit": "%"},
      {"measurement": "Survival (%) 48 Hrs", "setting": "[1]; [13]", "result": 100, "unit": "%"},
      {"measurement": "Survival (%) 72 Hrs", "setting": "[1]; [13]", "result": 100, "unit": "%"},
      {"measurement": "Survival (%) 24 Hrs", "setting": "[1]; [14]", "result": 100, "unit": "%"},
      {"measurement": "Survival (%) 48 Hrs", "setting": "[1]; [14]", "result": 100, "unit": "%"},
      {"measurement": "Survival (%) 72 Hrs", "setting": "[1]; [14]", "result": 100, "unit": "%"},
      {"measurement": "Survival (%) 24 Hrs", "setting": "[1]; [15]", "result": 100, "unit": "%"},
      {"measurement": "Survival (%) 48 Hrs", "setting": "[1]; [15]", "result": 100, "unit": "%"},
      {"measurement": "Survival (%) 72 Hrs", "setting": "[1]; [15]", "result": 100, "unit": "%"}
    ]}
  ]
}
